# According to PubChem BioAssay AID1963979 (Molecular Pharmacology Branch, DTP, NCI, 2024):
# Values joined by “and” are separate entries in the source; they are usually repeats but may differ in a detail not shown here. Equal entries are not always repeated.
# Tested on: 361931-004-R-J1-PDC multicell spheroid viability
# Assay: Anticancer human tumor 361931-004-R-J1-PDC patient-derived colon adenocarcinoma cell line growth inhibition [PI3K]
# Settings: for viability, T/C: stronger effect = lower value
# Source text: Combinatorial screen of targeted agents with the PI3K inhibitors inavolisib, alpelisib, duvelisib, and copanlisib in multi-cell type tumor spheroids
# A high-throughput screen of multi-cell type tumor spheroids was designed to identify active combinations of targeted small molecules and PI3K pathway inhibitors. Complex spheroids include a stromal component modeled by human endothelial cells (HUVEC) and fibroblasts modeled by human mesenchymal stem cells (MSCs). The concentration ranges selected for each drug and investigational agent were based upon clinically achievable concentrations if the clinical Cmax of the agent was known.
# Compounds. The drugs and investigational agents: inavolisib (NSC800729), alpelisib (NSC765974), duvelisib (NSC772469), copanlisib (NSC816437), ipatasertib (NSC767898), afuresertib (NSC778305), talazoparib (NSC767125), sapanisertib (NSC764658), selumetinib (NSC741078), tovorafenib (DAY101, NSC766906), vemurafenib (NSC761431), ravoxertinib (NSC781343), sotorasib (NSC818433), MRTX1133 (NSC 836407), abemaciclib (NSC 768073), palbociclib (NSC758247), venetoclax (NSC 766270), SY5609 (NSC837396), enzalutamide (NSC755605), and darolutamide (NSC825331), were obtained from the National Cancer Institute (NCI) Developmental Therapeutics Program Chemical Repository. The FDA-approved anticancer drug set is available from the NCI Developmental Therapeutics Program. […] The stock solutions were prepared in dimethyl sulfoxide (DMSO, Sigma-Aldrich, St. Louis, MO, cat. D2650) at 800-fold the tested concentration and stored at -70 degrees C prior to their use. All drugs and investigational agents were tested over a range starting from a high concentration at or near the clinical Cmax and decreasing in half-log increments. If the clinical Cmax for an agent had not been determined, the highest concentration tested was 10 microM.
# Cell Culture. All cells were maintained in an incubator at 37 degrees C and 5% CO2 with 95% humidity. The PDC lines were cultured according to standard operating procedures established by the NCI PDMR (https://pdmr.cancer.gov/sops/default.htm). All PDCs were thawed and cultured in Matrigel-coated flasks prepared with a working solution of 1X Ham's F-12 nutrient mix, without supplementation (Invitrogen, Waltham, MA, cat. 11765054), 100 U/mL penicillin-streptomycin (Invitrogen, cat. 15140122), and 2.5% Matrigel (Corning Inc., Corning, NY, cat. 354248) for the first three passages. The 354836-022-R-J1-PDC, 475296-252-R-J1-PDC, and 997726-040-R-J2-PDC lines were cultured in 6A media, which includes advanced DMEM/F-12 (Thermo Fisher Scientific, cat. 12634028), 10 mM HEPES (Thermo Fisher Scientific, cat. 15630080), 1X GlutaMAX supplement (Thermo Fisher Scientific, cat. 35050061), 0.1 mg/mL primocin (InvivoGen, San Diego, CA, cat. ant-pm-2), 10% defined fetal bovine serum, heat inactivated (HyClone Laboratories Inc., Logan, UT, cat. SH30070.03HI), 50% L-WRN conditioned media (ATCC, cat. CRL-3276), 1.25 mM N-Acetyl-L-cysteine (Sigma-Aldrich, cat. A9165), 10 mM nicotinamide (Sigma-Aldrich, cat. N0636), 1X B-27 supplement (Thermo Fisher Scientific, cat. 17504044), 1X N-2 supplement (Thermo Fisher Scientific, cat. 17502048), and 10 microM Y-27632 dihydrochloride (Tocris Bioscience, Bristol, United Kingdom, cat. 1254). The 624824-186-R-J2-PDC line was cultured in 6C/Colon 1B media, which includes all 6A media components plus 50 ng/mL human EGF recombinant protein (Thermo Fisher Scientific, cat. PHG0311). […]
# [1] = compound alone, run of 05/08/2023
# [2] = compound alone, run of 05/09/2023
# 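Further: spheroids exposed to agents for seven days before readout.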
Structure (SMILES),"viability, T/C (compound 0.00316 µM)","viability, T/C (compound 0.01 µM)","viability, T/C (compound 0.0316 µM)","viability, T/C (compound 0.1 µM)",IC50 (curve of compound),"viability, T/C (compound 0.316 µM)","viability, T/C (compound 3.16 µM)","viability, T/C (compound 10 µM)","viability, T/C (compound 1 µM)",other results
CC(=O)c1c(C)c2cnc(Nc3ccc(N4CCNCC4)cn3)nc2n(C2CCCC2)c1=O,100% [middle of 4 runs],103% [middle of 4 runs],108% (2×) and 92.8% and 104%,86.5% [middle of 4 runs],> 100 nM,–,–,–,–,"viability, T/C (compound 0.000316 µM): 103% [middle of 4 runs]; viability, T/C (compound 0.001 µM): 105% [middle of 4 runs]"
CC(C)NCC(C(=O)N1CCN(c2ncnc3c2C(C)CC3O)CC1)c1ccc(Cl)cc1 (stereo not given),–,–,97.8% [middle of 4 runs],99.3% [middle of 4 runs],–,94.3% [middle of 4 runs],48.7% [middle of 4 runs],31.1% [middle of 4 runs],–,–
CC(C)n1nc(-c2ccc3oc(N)nc3c2)c2c(N)ncnc21,108% and 100% (2×) and 104%,108% and 100% (2×) and 101%,99.3% [middle of 4 runs],76% [middle of 4 runs],> 100 nM,–,–,–,–,"viability, T/C (compound 0.000316 µM): 99.8% [middle of 4 runs]; viability, T/C (compound 0.001 µM): 102% [middle of 4 runs]"
CC(Nc1ccc2c(c1)OCCn1cc(N3C(=O)OCC3C(F)F)nc1-2)C(N)=O (stereo not given),98.9% [middle of 8 runs],97.8% [middle of 8 runs],98.1% [middle of 8 runs],94.3% [middle of 8 runs],–,92.9% [middle of 8 runs],–,–,88.1% [middle of 8 runs],IC50 [1]: > 1000 nM
CC(Nc1ncnc2nc[nH]c12)c1cc2cccc(Cl)c2c(=O)n1-c1ccccc1 (stereo not given),–,–,106% [middle of 8 runs],102% [middle of 8 runs],–,105% [middle of 8 runs],103% [middle of 8 runs],102% [middle of 8 runs],104% [middle of 8 runs],IC50 [2]: > 10000 nM
CCN1CCN(Cc2ccc(Nc3ncc(F)c(-c4cc(F)c5nc(C)n(C(C)C)c5c4)n3)nc2)CC1,104% (2×) and 94% and 103%,105% [middle of 4 runs],–,101% [middle of 4 runs],> 1000 nM,–,–,–,–,–
COc1c(OCCCN2CCOCC2)ccc2c3n(c(=NC(=O)c4cnc(N)nc4)nc12)CCN3,102% [middle of 8 runs],98.4% [middle of 8 runs],95.4% [middle of 8 runs],80.6% [middle of 8 runs],–,55.9% [middle of 8 runs],–,–,22.8% [middle of 8 runs],IC50 [2]: 393 nM [middle of 8 runs]
C[C@@H](NC(=O)c1ncnc(N)c1Cl)c1ncc(C(=O)Nc2cc(C(F)(F)F)c(Cl)cn2)s1,–,–,106% [middle of 4 runs],103% and 104% (2×) and 115%,> 10000 nM,107% [middle of 4 runs],99.3% [middle of 4 runs],100% [middle of 4 runs],99.6% [middle of 4 runs],–
Cc1nc(NC(=O)N2CCCC2C(N)=O)sc1-c1ccnc(C(C)(C)C(F)(F)F)c1 (stereo not given),–,–,101% [middle of 8 runs],–,–,97.9% [middle of 8 runs],87.2% [middle of 8 runs],73.8% [middle of 8 runs],91.2% [middle of 8 runs],IC50 [1]: > 10000 nM
Cn1cnc2c(F)c(Nc3ccc(Br)cc3Cl)c(C(=O)NOCCO)cc21,–,–,–,–,2440 nM and > 3000 nM and 2720 nM,–,–,–,–,"viability, T/C (compound 0.00949 µM): 97.8% [middle of 4 runs]; viability, T/C (compound 0.03 µM): 92.1% [middle of 4 runs]; viability, T/C (compound 0.0949 µM): 90% [middle of 4 runs]; viability, T/C (compound 0.3 µM): 86.4% [middle of 4 runs]; viability, T/C (compound 0.949 µM): 84% [middle of 4 runs]; viability, T/C (compound 3 µM): 62.8% [middle of 4 runs]"
Cn1ncnc1[C@H]1c2n[nH]c(=O)c3cc(F)cc(c23)N[C@@H]1c1ccc(F)cc1,96.5% [middle of 4 runs],101% [middle of 4 runs],102% [middle of 4 runs],–,> 100 nM,–,–,–,–,"viability, T/C (compound 0.000316 µM): 103% [middle of 4 runs]; viability, T/C (compound 0.001 µM): 99.7% [middle of 4 runs]"
